The source of these data is patent US11702418B2, “SOS1 inhibitors” (priority 2019, dated 2023).

The test system of one experiment is pERK in MKN1 cells. Description: cells. It is filed as cell-based.
Experiment [1] concerns the target recombinant human SOS1 polypeptide (amino acids 560-1049) (Homo sapiens (Human), UniProt Q07889). Kind of experiment: biochemical. In kind it is binding. Particulars: HTRF displacement, Cy5 labelled tracer, Morrison equation for competitive binding; read-out: Ki, Inhibition of Labeled Tracer Binding to SOS1. On the technique in general: In TR-FRET formats the signal depends on donor and acceptor labels being close together.
Protocol: The ability of a compound of Formula (I) to bind to SOS1 was measured using a HTRF displacement assay. […] After a 1-hour incubation at room temperature, the HTRF signal was measured using Clairostar plate reader (BMG Labtech) according to the manufacturer's instructions. Excitation filter EX-TR was used, and emission 1 was detected at 650-610 nm and emission 2 detected at 620-610 nm. The HTRF ratio was calculated using the formula: [emission 1/emission 2]*10000.
Background signals were calculated from well with a 10 μM inhibitor, known to inhibit 100% at that concentration. The background subtracted signals were converted to % binding relative to DMSO controls. Data were analyzed using XLFIT software (IDBS) using a Morrison equation for competitive binding and Ki's were generated compound of Formula (I).

The mark [2] stands for this setting: Homo sapiens, MKN-1, pERK inhibition, In-Cell Western, MKN1 or H358 cells (Table 24 does not say which), 0.5-1 hour incubation, read-out: IC50.

Where two headings read alike, the source gives them in different places. Where only a bound is given, the exact number is not on record here.

The IC50 is the midpoint of a concentration-inhibition curve. The term Ki denotes a dissociation constant, usually derived from enzyme kinetics or from competition with a known ligand.

Sequence of recombinant human SOS1 polypeptide (amino acids 560-1049) (Q07889 560-1049): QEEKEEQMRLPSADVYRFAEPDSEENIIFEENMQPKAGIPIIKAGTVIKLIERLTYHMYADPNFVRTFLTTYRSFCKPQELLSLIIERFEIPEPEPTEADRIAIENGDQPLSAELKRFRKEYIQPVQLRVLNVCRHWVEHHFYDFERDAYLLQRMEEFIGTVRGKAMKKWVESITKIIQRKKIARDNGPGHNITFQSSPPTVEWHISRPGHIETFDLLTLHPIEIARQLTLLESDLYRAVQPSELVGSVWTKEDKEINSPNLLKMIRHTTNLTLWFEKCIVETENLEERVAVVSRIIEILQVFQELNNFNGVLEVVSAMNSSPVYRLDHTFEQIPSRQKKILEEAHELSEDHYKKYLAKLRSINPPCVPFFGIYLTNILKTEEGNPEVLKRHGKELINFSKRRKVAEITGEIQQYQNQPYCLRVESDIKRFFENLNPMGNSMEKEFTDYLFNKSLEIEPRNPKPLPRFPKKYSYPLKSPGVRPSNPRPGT
Protocol for pERK in MKN1 cells: The cells were incubated for approximately 0.5-1 hour with the compounds solubilized in DMSO at 37° C. Cells were immediately fixed by adding 50 μL of 4% formaldehyde to all wells in a fume hood and the plates were incubated for 20 minutes at room temperature. The formaldehyde was discarded from the plates and 150 μL of ice-cold methanol was added to permeabilize the cells for 10 minutes at −20° C. The methanol was discarded from each of the plates and any liquid remaining in the plate by tapping the plate against paper towels. […] The plates were incubated overnight at 4° C. on a shaker.
On Assay day 2, the primary antibody solution was removed. […] The secondary antibody solution as removed and each plate was washed with PBST 3× times. Any liquid remaining was discarded and the plate was imaged using the Licor Odyssey machine according to the manufacturer's instruction, using a set focus length at 3 mm and both 800 nm and 700 nm filters. The GAPDH normalized scan values for each well were divided by the average of vehicle wells to get the % of pERK inhibition. The IC50 values were then calculated with the Graph pad Prism software.

As for `Cc1c([C@@H](C)Nc2nncc3ccc(N4CCOC5(CCOC5)C4)cc23)cccc1C(F)(F)F` (stereo partly drawn) [Example 1-41, N-((R)-1-(2-methyl-3-(trifluoromethyl)phenyl)ethyl)-7-(2,6-dioxa-9-azaspiro[4.5]decan-9-yl)phthalazin-1-amine], the concentration for half-maximal inhibition (IC50) in the experiment with pERK in MKN1 cells (setting [2]) came out at 195 nM.
For the compound `Cc1c([C@@H](C)Nc2nncc3ccc(N4CCC5(CCN(C)C5)C4)cc23)cccc1C(F)(F)F` (stereo partly drawn) [Example 1-39, N-((R)-1-(2-methyl-3-(trifluoromethyl)phenyl)ethyl)-7-(7-methyl-2,7-diazaspiro[4.4]nonan-2-yl)phthalazin-1-amine], the IC50 with pERK in MKN1 cells (setting [2]) came to 170 nM.
Regarding `Cc1c([C@@H](C)Nc2nncc3ccc(N4CCC5(CCCN(C)C5)C4)cc23)cccc1C(F)(F)F` (stereo partly drawn) [Example 1-34, N-((R)-1-(2-methyl-3-(trifluoromethyl)phenyl)ethyl)-7-(7-methyl-2,7-diazaspiro[4.5]decan-2-yl)phthalazin-1-amine], the half-maximal inhibitory concentration (IC50) in the experiment with pERK in MKN1 cells (setting [2]) stood at 119 nM.
With `Cc1nnc(N[C@H](C)c2ccc(Cl)cc2Cl)c2cc(N3CCNCC3)ccc12` [Example 10-21, (R)-N-(1-(2,4-dichlorophenyl)ethyl)-4-methyl-7-(piperazin-1-yl)phthalazin-1-amine], the 50% inhibitory concentration (IC50) in the experiment on pERK in MKN1 cells (setting [2]) is 444 nM.
`Cc1c([C@@H](C)Nc2nncc3ccc(N4CC(C(=O)N(C)C)C4)cc23)cccc1C(F)(F)F` [Example 1-24, (R)-N,N-dimethyl-1-(4-((1-(2-methyl-3-(trifluoromethyl)phenyl)ethyl)amino)phthalazin-6-yl)azetidine-3-carboxamide]: in the experiment with pERK in MKN1 cells (setting [2]), the IC50 amounted to 25 nM.
In the case of `Cc1c([C@@H](C)Nc2nncc3ccc(OC4CC5CCC(C4)N5C)cc23)cccc1C(F)(F)F` (stereo partly drawn) [Example 2-10, N-((R)-1-(2-methyl-3-(trifluoromethyl)phenyl)ethyl)-7-((8-methyl-8-azabicyclo[3.2.1]octan-3-yl)oxy)phthalazin-1-amine], the IC50 in the experiment on pERK in MKN1 cells (setting [2]) worked out at 223 nM.
The same measure, in the same setting: as for `Cc1cc(C)n(-c2ccc3c(C)nnc(N[C@H](C)c4cccc(C(F)(F)F)c4C)c3c2)n1` [Example 10-14, (R)-7-(3,5-dimethyl-1H-pyrazol-1-yl)-4-methyl-N-(1-(2-methyl-3-(trifluoromethyl)phenyl)ethyl)phthalazin-1-amine], the figure is 1150 nM; as for `Cc1c([C@@H](C)Nc2nnc(C)c3cnc(N4C[C@@H](C)O[C@@H](C)C4)cc23)cccc1C(F)(F)F` [Example 12-4], 370 nM.
As for `Cc1c([C@@H](C)Nc2nnc(C)c3ccc(-n4cccn4)cc23)cccc1C(F)(F)F` [Example 10-17, (R)-4-methyl-N-(1-(2-methyl-3-(trifluoromethyl)phenyl)ethyl)-7-(1H-pyrazol-1-yl)phthalazin-1-amine], the half-inhibitory concentration (IC50) in the experiment on pERK in MKN1 cells (setting [2]) turned out to be 2630 nM.
`Cc1c([C@@H](C)Nc2nncc3ccc(N4CCCC(N5CCC5)C4)cc23)cccc1C(F)(F)F` (stereo partly drawn) [Example 1-49, 7-(3-(azetidin-1-yl)piperidin-1-yl)-N-((R)-1-(2-methyl-3-(trifluoromethyl)phenyl)ethyl)phthalazin-1-amine]: the IC50 in the experiment on pERK in MKN1 cells (setting [2]) worked out at 426 nM.
Regarding `Cc1c([C@@H](C)Nc2nncc3ccc(N4CCCCC(N(C)C)C4)cc23)cccc1C(F)(F)F` (stereo partly drawn) [Example 1-50, 7-(3-(dimethylamino)azepan-1-yl)-N-((R)-1-(2-methyl-3-(trifluoromethyl)phenyl)ethyl)phthalazin-1-amine], the half-maximal inhibitory concentration (IC50) in the experiment with pERK in MKN1 cells (setting [2]) was determined as 453 nM.
On the same count and under the same terms, as for `C[C@@H](Nc1nncc2ccc(N3CCOCC3)cc12)c1cc(-c2ccccc2CN(C)C)cs1` [Example 2-1, (R)—N-(1-(4-(2-((dimethylamino)methyl)phenyl)thiophen-2-yl)ethyl)-7-morpholinophthalazin-1-amine], the figure is 308 nM; as for `Cc1c([C@@H](C)Nc2nncc3ccc(N4CCN(C)C(=O)C4)cc23)cccc1C(F)(F)F` [Example 1-30, (R)-1-methyl-4-(4-((1-(2-methyl-3-(trifluoromethyl)phenyl)ethyl)amino)phthalazin-6-yl)piperazin-2-one], 79 nM.
`COc1nnc(N[C@H](C)c2cccc(C(F)(F)F)c2C)c2cc(N3CCNCC3)ccc12` [Example 9-1, (R)-4-methoxy-N-(1-(2-methyl-3-(trifluoromethyl)phenyl)ethyl)-7-(piperazin-1-yl)phthalazin-1-amine]: in the experiment with pERK in MKN1 cells (setting [2]), the IC50 was over 10000 nM.
For `Cc1c([C@@H](C)Nc2nncc3ccc(N4CCC5C(CCN5C)C4)cc23)cccc1C(F)(F)F` (stereo partly drawn) [Example 1-35, N-((R)-1-(2-methyl-3-(trifluoromethyl)phenyl)ethyl)-7-(1-methyloctahydro-5H-pyrrolo[3,2-c]pyridin-5-yl)phthalazin-1-amine], the half-maximal inhibitory concentration (IC50) in the experiment with pERK in MKN1 cells (setting [2]) was 123 nM.
Regarding `Cc1c([C@@H](C)Nc2nncc3ccc(N4CCn5c(nc6ccccc65)C4)cc23)cccc1C(F)(F)F` [Example 1-46, (R)-7-(3,4-dihydrobenzo[4,5]imidazo[1,2-a]pyrazin-2(1H)-yl)-N-(1-(2-methyl-3-(trifluoromethyl)phenyl)ethyl)phthalazin-1-amine], in the experiment on pERK in MKN1 cells (setting [2]), the IC50 turned out to be 341 nM.
With `Cc1c([C@@H](C)Nc2nncc3ccc(N4CCCN(C)CC4)cc23)cccc1C(F)(F)F` [Example 1-29, (R)-7-(4-methyl-1,4-diazepan-1-yl)-N-(1-(2-methyl-3-(trifluoromethyl)phenyl)ethyl)phthalazin-1-amine], in the experiment on pERK in MKN1 cells (setting [2]), the IC50 is 71 nM.
As to `Cc1c([C@@H](C)Nc2nncc3ccc(OC4CCN(C)C4)cc23)cccc1C(F)(F)F` (stereo partly drawn) [Example 2-7, N-((R)-1-(2-methyl-3-(trifluoromethyl)phenyl)ethyl)-7-((1-methylpyrrolidin-3-yl)oxy)phthalazin-1-amine], the half-maximal inhibitory concentration (IC50) with pERK in MKN1 cells (setting [2]) is 142 nM.
Take `Cc1c([C@@H](C)Nc2nnc(C)c3cnc(N4C[C@@H](C)O[C@H](C)C4)cc23)cccc1C(F)(F)F` [Example 12-5]: the IC50 in the experiment with pERK in MKN1 cells (setting [2]) amounted to 850 nM.
The same measure, in the same setting: as for `Cc1c([C@@H](C)Nc2nncc3ccc(N4CCn5c(nc6c5CCCC6)C4)cc23)cccc1C(F)(F)F` [Example 1-45, (R)-7-(3,4,6,7,8,9-hexahydrobenzo[4,5]imidazo[1,2-a]pyrazin-2(1H)-yl)-N-(1-(2-methyl-3-(trifluoromethyl)phenyl)ethyl)phthalazin-1-amine], the figure is 335 nM; as for `Cc1nnc(N[C@H](C)c2ccc(Cl)cc2Cl)c2cc(N3CCOCC3)ccc12` [Example 10-20, (R)-N-(1-(2,4-dichlorophenyl)ethyl)-4-methyl-7-morpholinophthalazin-1-amine], 1650 nM.
As for “4-methyl-N—((R)-1-(5-(2-((methylamino)methyl(phenyl)thiophen-2-yl)ethyl)-7-(((S)-tetrahydrofuran-3-yl)oxy)phthalazin-1-amine [Example 7-1]”, in the experiment on pERK in MKN1 cells (read-out: IC50), the concentration for half-maximal inhibition (IC50) was found to be 79 nM.
As to `Cc1c([C@@H](C)Nc2nncc3ccc(N4CCCC(N(C)C)C4)cc23)cccc1C(F)(F)F` (stereo partly drawn) [Example 1-36, 7-(3-(dimethylamino)piperidin-1-yl)-N-((R)-1-(2-methyl-3-(trifluoromethyl)phenyl)ethyl)phthalazin-1-amine], in the experiment on pERK in MKN1 cells (setting [2]), the half-maximal inhibitory concentration (IC50) amounted to 125 nM.
Regarding `Cc1c([C@@H](C)Nc2nncc3ccc(N4CCOCC4C)cc23)cccc1C(F)(F)F` (stereo partly drawn) [Example 1-27, N-((R)-1-(2-methyl-3-(trifluoromethyl)phenyl)ethyl)-7-(3-methylmorpholino)phthalazin-1-amine], the IC50 in the experiment with pERK in MKN1 cells (setting [2]) stood at 61 nM.
On to `Cc1c([C@@H](C)Nc2nnc(C)c3ccc(-n4ncc5c4CNC5)cc23)cccc1C(F)(F)F` [Example 10-15, (R)-7-(5,6-dihydropyrrolo[3,4-c]pyrazol-1(4H)-yl)-4-methyl-N-(1-(2-methyl-3-(trifluoromethyl)phenyl)ethyl)phthalazin-1-amine], for which the IC50 with pERK in MKN1 cells (setting [2]) was determined as 844 nM.
With `Cc1c([C@@H](C)Nc2nncc3ccc(N4CC5CCN(C)CC5C4)cc23)cccc1C(F)(F)F` (stereo partly drawn) [Example 1-31, N-((R)-1-(2-methyl-3-(trifluoromethyl)phenyl)ethyl)-7-(5-methyloctahydro-2H-pyrrolo[3,4-c]pyridin-2-yl)phthalazin-1-amine], in the experiment with pERK in MKN1 cells (setting [2]), the IC50 worked out at 83 nM.
For the compound `Cc1c([C@@H](C)Nc2nnc(CN)c3ccc(N4CCOCC4)cc23)cccc1C(F)(F)F` [Example 14-2, (R)-4-(aminomethyl)-N-(1-(2-methyl-3-(trifluoromethyl)phenyl)ethyl)-7-morpholinophthalazin-1-amine], the IC50 with pERK in MKN1 cells (Homo sapiens, MKN-1, pERK inhibition, In-Cell Western, MKN1 or H358 cells (Table 24 does not say which), 0.5-1 hour incubation) is 139 nM.
Turning to `Cc1c([C@@H](C)Nc2nnc(C)c3cnc(N4CC(C)(N(C)C)C4)cc23)cc(F)cc1C(F)(F)F` [Example 12-110], the Ki in experiment [1] came to 3.54 nM.
As for `Cc1c(C#N)cccc1[C@@H](C)Nc1nnc(C)c2cnc(N3CC(C)(N4CCOCC4)C3)cc12` [Example 12-87], the inhibitory constant (Ki) in experiment [1] is 3.17 nM.
On the same count and under the same terms, as for `Cc1nnc(N[C@H](C)c2cccc(F)c2Cl)c2cc(N3CC4CC(C3)O4)ncc12` [Example 12-77], the figure is 28.5 nM.
Consider `Cc1nnc(N[C@H](C)c2cccc(C(F)F)c2F)c2cc(N3C[C@H]4C[C@@H]3CO4)ncc12` [Example 12-99], for which the Ki in experiment [1] was 0.93 nM.
With `Cc1c([C@@H](C)Nc2nnc(C)c3cnc(N4CC(C)(O)C4)cc23)cc(F)cc1C(F)(F)F` [Example 12-111], in experiment [1], the Ki was 8.09 nM.
Take `Cc1c([C@@H](C)Nc2nnc(C)c3ccc(C4CCNCC4)cc23)cccc1C(F)(F)F` [Example 10-1, (R)-4-methyl-N-(1-(2-methyl-3-(trifluoromethyl)phenyl)ethyl)-7-(piperidin-4-yl)phthalazin-1-amine]: in the experiment on pERK in MKN1 cells (Homo sapiens, MKN-1), the IC50 came to 183 nM.
On to `Cc1cccc([C@@H](C)Nc2nnc(C)c3cnc(N4CC5CC(C4)O5)cc23)c1F` [Example 12-134], for which the Ki in experiment [1] stood at 7.1 nM.
As to `COCCN1CCC(Oc2ccc3cnnc(N[C@H](C)c4cccc(C(F)(F)F)c4C)c3c2)CC1` [Example 2-9, (R)-7-((1-(2-methoxyethyl)piperidin-4-yl)oxy)-N-(1-(2-methyl-3-(trifluoromethyl)phenyl)ethyl)phthalazin-1-amine], the IC50 in the experiment with pERK in MKN1 cells (setting [2]) is 172 nM.
